The source of these data is patent US20240329063A1, “METHOD FOR EVALUATING RESIDUAL PLATELET THROMBOTIC POTENTIAL IN PATIENTS UNDERGOING ANTIPLATELET TREATMENT” (Centro Cardiologico Monzino S.P.A., priority 2021, published 2024).

For experiment [1], the system named is aGPIIbIIIa. In words: ADP-induced aGPIIbIIIa expression (PAC1 binding) on platelets, flow cytometry, in vitro antagonist inhibition curves. Format: cell-based, human. As to conditions: ADP-stimulated platelets, spread as % CV, FIG. 1D-F. On the procedure:
(§1) The data obtained in patients without clopidogrel (No clopido) (n=39) are shown for comparison purposes. Panels C, D and E show the ADP concentration-response curves (black squares) and AR-C69931MX antagonist inhibition curves (white triangles) relating to TF, aGPIIbIIIa and P-selectin respectively. The EC50 of the agonist was calculated with a four-parameter logistic model, while the pA2s of the antagonist were calculated as described in Materials and Methods. The results are presented as percentage expression of the protein compared with baseline (s/b). The experiments were conducted at least three times. **p<0.01, ***p<0.001.
(§2) For the analysis of intracellular expression of TF, the cells were fixed for 2 hours with 1% paraformaldehyde, permeabilised for 10 min with an 0.1% solution of Triton X-100 PBS, and labelled for 15 min at room temperature in the dark with saturating concentrations of anti-TF and CD61 antibodies (PerCP; Becton Dickinson). […] All the data were analysed with Kaluza analysis software v1.5 (Beckman Coulter) and reported as percentage of positive cells or MFI (mean fluorescence intensity) of platelets positive to the activation marker.
(§3) A p-value of 0.05 was considered statistically significant. […] All curves shown are generated by informatics methods.
A general note: In flow cytometry, cells or beads pass a laser one at a time.

For experiment [2], the system named is TF. Nature of the experiment: ADP-induced TF expression on platelets, flow cytometry, in vitro antagonist inhibition curves. Format: cell-based, human. As to conditions: ADP-stimulated platelets, spread as % CV, FIG. 1D-F. On the procedure:
as §1, §2, §3

Experiment [3] deals with P-selectin. Nature of the experiment: ADP-induced P-selectin expression on platelets, flow cytometry, in vitro antagonist inhibition curves. The format is cell-based, human. As to the method:
as §1, §2, §3

For experiment [4], the system named is P-selectin. As to conditions: clopidogrel 75 mg/day; 10 μM ADP; all CAD patients, to the same extent regardless of the degree of VASP phosphorylation; FIG. 1C. On the procedure:
(§4) The in vitro experiments were conducted on 10 healthy volunteers (n=5 males and n=5 females; average age 39±6) who had not taken antiplatelet medicaments in the 10 days before the blood sample was taken. The effect of clopidogrel on TF expression was evaluated on 193 patients suffering from coronary artery disease (CAD) with myocardial infarction with non-ST elevation. […] The clinical characteristics of the patients enrolled are set out in Table 1.
(§5) The exclusion criteria were: age >80 years, valvular heart disease, atrial fibrillation, thyrotoxicosis, history of haemorrhagic diathesis, platelet disorder or thrombocytopenia, anticoagulant or thrombolytic treatment. A subject with severe congenital P2Y12 deficiency (person) was also studied.
(§6) Whole blood (WB) samples were taken with a 19 gauge needle without venous stasis in tubes containing sodium citrate (0.129 M, 1/10 volume/volume) (Vacutainer, Becton Dickinson), discarding the first 4 ml. The blood samples were then processed within 15 minutes of sample-drawing. The WB was centrifuged (room temperature, without centrifuge brake) at 100 g for 10 minutes to isolate the platelets. The platelet-rich plasma (PRP) was transferred to a new test tube and analysed with the Sysmex XE-2100 Automated Hematology Analyzer to determine the platelet count, mean platelet volume (MPV), platelet distribution […] (PDW), platelet recovery (defined as the percentage of the platelet count in the PRP to 100% of the number of platelets in the WB), and leukocyte contamination. Only the platelet preparations free of leukocyte contamination and with platelet recovery >70% were used for the subsequent thrombin generation analysis.
(§7) Surface expression of platelet activation markers was analysed by flow cytometry as previously described (Brambilla M, et al., Arterioscler Thromb Vasc Biol. 2008;28 (5): 947-953). Briefly, the samples were incubated/labelled with saturating concentrations of mouse monoclonal antibodies recognizing human tissue factor (HTF1; Thermo Fisher), P-selectin (APC; Becton Dickinson), PAC1 (FITC; Becton Dickinson), CD36 (PE; Becton Dickinson) and CD154 (FITC; Becton Dickinson). For the analysis of intracellular expression of TF, the cells were fixed for 2 hours with 1% paraformaldehyde, permeabilised for 10 min with an 0.1% solution of Triton X-100 PBS, and labelled for 15 min at room temperature in the dark with saturating concentrations of anti-TF and CD61 antibodies (PerCP; Becton Dickinson).

Experiment [5] has as its system TF. As to conditions: clopidogrel 75 mg/day, FIG. 1A. On the procedure:
as §4, §5, §6, §7

For experiment [6], the system named is aGPIIbIIIa. As to conditions: clopidogrel 75 mg/day; 10 μM ADP; FIG. 1B. As to the method: as §4, §5, §6, §7

For `CSCCNc1nc(SCCC(F)(F)F)nc2c1ncn2[C@@H]1O[C@H](COP(=O)(O)OP(=O)(O)C(Cl)(Cl)P(=O)(O)O)[C@@H](O)[C@H]1O` [AR-C69931MX], the “pA2 for inhibition of aGPIIbIIIa expression” value with aGPIIbIIIa [1] is 10.7±0.29. Further, the “pA2 for inhibition of TF expression” value in the experiment with TF [2] stood at 9.33±2.1. The “pA2 for inhibition of P-selectin expression” value with P-selectin [3] (ADP-stimulated platelets, spread as % CV, FIG. 1D-F) was determined as 11.5±3.1. Moreover, in the experiment with P-selectin [3] (P-selectin versus TF), the “power (pA2) to inhibit P-selectin expression relative to that required to inhibit TF” value was 150 times. Besides, the “power (pA2) to inhibit P-selectin expression relative to that required to inhibit aGPIIbIIIa” value in the experiment with P-selectin [3] (P-selectin versus aGPIIbIIIa) turned out to be 6 times.
Take `COC(=O)[C@H](c1ccccc1Cl)N1CCc2sccc2C1` [clopidogrel]: the P-selectin expression result in the experiment on P-selectin [4] is “significantly inhibited”. Further, the “inhibition of TF exposed to stimulation with 10 μM ADP, poor responders versus good responders” value in the experiment with TF [5] (patients with PRI >60% compared with PRI <60%) is recorded as “significantly less than that measured in the good responders”. For the same compound, the “inhibition of TF exposed to stimulation with 10 μM ADP, poor responders versus untreated subjects” value in the experiment on TF [5] (patients with PRI >60% compared with subjects not treated with clopidogrel) is “not statistically different from that measured in the subjects not treated with clopidogrel”. In addition, in the experiment on aGPIIbIIIa [6], the “expression of activated glycoprotein IIbIIIa measured by the PAC1 bond” value is “highest in the poor responders”.
